Here are results for three compounds from patent US20110281808A1, “Composition and Method for Increasing Pre Workout Thermogenics” (ALLMAX NUTRITION INC., priority 2010, published 2011).

The nature of data set [1]: oral administration of naringin with Yerba Mate, half life of caffeine and thermogenesis. It counts as in vivo. The following applies: oral administration together with Yerba Mate (source of caffeine).
For data set [2] the following is noted: humans, from grapefruit juice; cited from earlier work.
For data set [3] the following is noted: after ingestion, horses; cited from earlier work.
For data set [4] the following is noted: oral administration of 500 mg hordenine to horses; cited from earlier work.
The subject of the next data set is central nervous system. The following applies: cats under anaesthesia; cited from earlier work.

Usually half-life stands for the time in which the quantity being followed falls by half.

Take `C[C@@H]1O[C@@H](O[C@H]2[C@H](Oc3cc(O)c4c(c3)O[C@H](c3ccc(O)cc3)CC4=O)O[C@H](CO)[C@@H](O)[C@@H]2O)[C@H](O)[C@H](O)[C@H]1O` [naringin, 4′, 5,7-tri-hydroxyflavonone 7-rhamno-glucoside]: in data set [1], the “effect on half life of caffeine and thermogenesis” value is “acts synergistically with Yerba Mate”. For the compound `O=C1C[C@@H](c2ccc(O)cc2)Oc2cc(O)cc(O)c21` [naringenin], in data set [2], the bioavailability entry is recorded as “bioavailable from grapefruit juice”. For `CN(C)CCc1ccc(O)cc1` [hordenine, N,N-dimethyl-4-hydroxyphenylethylamine], in data set [3], the half-life was 24 min. In addition, the heart rate entry in data set [4] is “slight increase in heart rate”. Moreover, the “muscle tone / spinal cord stimulation” value with central nervous system is “increases muscle tone”.
